The text below walks through data of patent US10829796B2, “Bacteria identification and antimicrobial susceptibility test” (priority 2015, dated 2020).

Common to all, as to assay type: cell-based
One assay has as its system Staphylococcus aureus. Nature of the assay: Antibiotic susceptibility testing (colour of media), spiked milk. The note with it: bacteria sample 5c. As for the experimental part: Tables 36 to 38 which follow show further examples of antibiotic susceptibility testing performed in accordance with the present invention. Table 36, antibiotic susceptibility testing of Staphylococcus aureus in Mueller Hinton and Tryptic Soy Broth at pre-incubation and at between 15-24 h. Tables 37 and 38, antimicrobial susceptibility testing of Streptococcus uberis and E. coli with the addition of gram negative specific antibiotic aztreonam. Tables 38 to 49 show further examples of antibiotic susceptibility testing and the outcomes are aligned with the described inventions.

In assay [1] the test system is Streptococcus uberis. Nature of the assay: Colour change of enrichment media with pH indicator, bacteria in milk (stabilizing agent). As to conditions: excess concentration (Table 4e, 0.04%) in presence of milk; all inoculums investigated. The text has this:
The present invention overcomes these limitations through inclusion of one or more stabilizing agents which suppresses the potential inhibitory effect of the colour based pH indicator. As such, increased concentrations of the colour based pH indicator (e.g. phenol red) may be used in the test, thereby achieving stability in the colour change associated with bacteria growth. An example of a stabilizing agent according to the present invention is milk.
In this Example, liquid culture media is used which allows early and easy identification of susceptible antimicrobials to support decision of antimicrobial selection to treat bacterial infections. It also allows the detection of bacteria such as gram+ and/or gram-bacteria in clinical samples are present and/or allows estimation of the inoculum from kinetic analyses of colour change. The base of this liquid culture medium is a general purpose liquid enrichment medium for example tryptic soy broth (Soybean-Casein Digest Medium) but could also be Mueller Hinton broth. This TSB media has excess concentration of a pH indicator such as phenol red and/or bromocresol purple and milk. […] Colorimetric analyses can performed by the naked eye or by an optical reader for example via CCD camera chip or photo diode. […]

In assay [2] the test system is Streptococcus uberis. The experiment in a line: Group D Streptococci identification, esculin/ferric citrate in TSB (blackening = growth), bacteria in milk. As to conditions: TSB containing 0.5% esculin and 0.25% ferric citrate + 80 uL spiked milk; 100 ug/ml aztreonam and/or 0.5 mg/mL phenol red. As to the method: By way of illustration, the same experiment was conducted as above, only this time using clinical milk samples obtained from a bovine animal suspect of being infected with mastitis.
However, Applicant has discovered that increased amounts of esculin and ferric citrate may be used in milk derived clinical samples. For example, at concentrations of at least 2% esculin and 1% ferric citrate, the growth of Streptococcus uberis is not inhibited.
Note, in the experiments above, the clinical sample tested was milk obtained from a bovine animal suspected of being infected by mastitis. If a non-milk clinical sample were to be tested, then inclusion of a stabilizing agent (e.g. milk in the form of a liquid or powder) would be required in order to suppress the growth inhibitory effect of esculin and ferric citrate at the higher concentrations used according to this invention.
Applicant further discovered that TSB containing 0.5% esculin and 0.25% ferric citrate and 80 uL of spiked Streptococcus uberis milk sample which also contained 100 ug/ml aztreonam concentration (antibiotic which has activity against many gram-bacteria such as E. coli) and/or in combination with 0.5 mg/mL phenol red led to easy detectable colour changes. No inhibition of Streptococcus uberis due to phenol red or aztreonam was detected.

Setting [3] is: T = 0 hours (pre incubation), drug 0.01 μg/ml, Mueller Hinton (70 ul composition 26).
Setting [4] is: T = 0 hours (pre incubation), drug 0.05 μg/ml, Mueller Hinton (70 ul composition 26).
[5] abbreviates: T = 0 hours (pre incubation), drug 0.1 μg/ml, Mueller Hinton (70 ul composition 26).
Setting [6] is: T = 0 hours (pre incubation), drug 0.5 μg/ml, Mueller Hinton (70 ul composition 26).
Where [7] appears, read: T = 0 hours (pre incubation), drug 1 μg/ml, Mueller Hinton (70 ul composition 26).
The mark [8] stands for this setting: T = 0 hours (pre incubation), drug 5 μg/ml, Mueller Hinton (70 ul composition 26).
[9] abbreviates: T = 0 hours (pre incubation), drug 10 μg/ml, Mueller Hinton (70 ul composition 26).
The mark [10] stands for this setting: T = 0 hours (pre incubation), drug 50 μg/ml, Mueller Hinton (70 ul composition 26).
Where [11] appears, read: T = 0 hours (pre incubation), drug 100 μg/ml, Mueller Hinton (70 ul composition 26).
[12] abbreviates: T = 0 hours (pre incubation), drug 500 μg/ml, Mueller Hinton (70 ul composition 26).
The mark [13] stands for this setting: T = 15-24 h at 35° C., drug 0.01 μg/ml, Mueller Hinton (70 ul composition 26).
Where [14] appears, read: T = 15-24 h at 35° C., drug 0.05 μg/ml, Mueller Hinton (70 ul composition 26).
Where [15] appears, read: T = 15-24 h at 35° C., drug 0.1 μg/ml, Mueller Hinton (70 ul composition 26).
Where [16] appears, read: T = 15-24 h at 35° C., drug 0.5 μg/ml, Mueller Hinton (70 ul composition 26).
[17] abbreviates: T = 15-24 h at 35° C., drug 1 μg/ml, Mueller Hinton (70 ul composition 26).
[18] abbreviates: T = 15-24 h at 35° C., drug 5 μg/ml, Mueller Hinton (70 ul composition 26).
The mark [19] stands for this setting: T = 15-24 h at 35° C., drug 10 μg/ml, Mueller Hinton (70 ul composition 26).
Setting [20] is: T = 15-24 h at 35° C., drug 50 μg/ml, Mueller Hinton (70 ul composition 26).
Where [21] appears, read: T = 15-24 h at 35° C., drug 100 μg/ml, Mueller Hinton (70 ul composition 26).
[22] abbreviates: T = 15-24 h at 35° C., drug 500 μg/ml, Mueller Hinton (70 ul composition 26).

As to `CC1=C(C(=O)O)N2C(=O)[C@@H](NC(=O)[C@H](N)c3ccccc3)[C@H]2SC1` [Cephalexin], the Colour of media result with Staphylococcus aureus (setting [3]), in the assay with Staphylococcus aureus (setting [4]), in the assay with Staphylococcus aureus (setting [5]), with Staphylococcus aureus (setting [6]), with Staphylococcus aureus (setting [7]) and with Staphylococcus aureus (setting [8]) was “red” each time. Also, the Colour of media result is “red” with Staphylococcus aureus (setting [9]); “red” with Staphylococcus aureus (setting [10]); “red” in the assay with Staphylococcus aureus (setting [11]); “red” with Staphylococcus aureus (setting [12]); “yellow” with Staphylococcus aureus (setting [13]); “yellow” in the assay with Staphylococcus aureus (setting [14]). The Colour of media entry with Staphylococcus aureus (setting [15]) is on record as “yellow”; with Staphylococcus aureus (setting [16]), “yellow”; with Staphylococcus aureus (setting [17]), “red”; with Staphylococcus aureus (setting [18]), “red”; in the assay with Staphylococcus aureus (setting [19]), “red”; with Staphylococcus aureus (setting [20]), “red”. Further, the Colour of media result with Staphylococcus aureus (setting [21]) and with Staphylococcus aureus (setting [22]) was “red” throughout.
As to `CN[C@@H]1[C@H](O[C@H]2[C@H](O[C@H]3[C@H](O)[C@@H](O)[C@H](NC(=N)N)[C@@H](O)[C@@H]3NC(=N)N)O[C@@H](C)[C@]2(O)CO)O[C@@H](CO)[C@H](O)[C@H]1O` [Dihydrostreptomycin], the Colour of media result in the assay on Staphylococcus aureus (T = 0 hours (pre incubation), drug 0.01 μg/ml, Tryptic Soy (70 ul composition 2c)) is “red”; in the assay with Staphylococcus aureus (T = 0 hours (pre incubation), drug 0.05 μg/ml, Tryptic Soy (70 ul composition 2c)), “red”; in the assay with Staphylococcus aureus (T = 0 hours (pre incubation), drug 0.1 μg/ml, Tryptic Soy (70 ul composition 2c)), “red”; in the assay on Staphylococcus aureus (T = 0 hours (pre incubation), drug 0.5 μg/ml, Tryptic Soy (70 ul composition 2c)), “red”; with Staphylococcus aureus (T = 0 hours (pre incubation), drug 1 μg/ml, Tryptic Soy (70 ul composition 2c)), “red”; in the assay with Staphylococcus aureus (T = 0 hours (pre incubation), drug 5 μg/ml, Tryptic Soy (70 ul composition 2c)), “red”. Besides, the Colour of media entry is listed as “red” in the assay with Staphylococcus aureus (T = 0 hours (pre incubation), drug 10 μg/ml, Tryptic Soy (70 ul composition 2c)); “red” in the assay with Staphylococcus aureus (T = 0 hours (pre incubation), drug 50 μg/ml, Tryptic Soy (70 ul composition 2c)); “red” in the assay on Staphylococcus aureus (T = 0 hours (pre incubation), drug 100 μg/ml, Tryptic Soy (70 ul composition 2c)); “red” in the assay on Staphylococcus aureus (T = 0 hours (pre incubation), drug 500 μg/ml, Tryptic Soy (70 ul composition 2c)); “yellow” in the assay on Staphylococcus aureus (T = 15-24 h at 35° C., drug 0.01 μg/ml, Tryptic Soy (70 ul composition 2c)); “yellow” in the assay with Staphylococcus aureus (T = 15-24 h at 35° C., drug 0.05 μg/ml, Tryptic Soy (70 ul composition 2c)). Moreover, the Colour of media result with Staphylococcus aureus (T = 15-24 h at 35° C., drug 0.1 μg/ml, Tryptic Soy (70 ul composition 2c)) was “yellow”; in the assay on Staphylococcus aureus (T = 15-24 h at 35° C., drug 0.5 μg/ml, Tryptic Soy (70 ul composition 2c)) it was “yellow”; with Staphylococcus aureus (T = 15-24 h at 35° C., drug 1 μg/ml, Tryptic Soy (70 ul composition 2c)), “yellow”; in the assay on Staphylococcus aureus (T = 15-24 h at 35° C., drug 5 μg/ml, Tryptic Soy (70 ul composition 2c)) it was “yellow”; in the assay on Staphylococcus aureus (T = 15-24 h at 35° C., drug 10 μg/ml, Tryptic Soy (70 ul composition 2c)), “yellow”; in the assay with Staphylococcus aureus (T = 15-24 h at 35° C., drug 50 μg/ml, Tryptic Soy (70 ul composition 2c)), “yellow”. In addition, the Colour of media result with Staphylococcus aureus (T = 15-24 h at 35° C., drug 100 μg/ml, Tryptic Soy (70 ul composition 2c)) is recorded as “red”; in the assay with Staphylococcus aureus (T = 15-24 h at 35° C., drug 500 μg/ml, Tryptic Soy (70 ul composition 2c)), “red”.
For `NC[C@@H]1O[C@H](O[C@H]2[C@@H](O)[C@H](O[C@@H]3[C@@H](O)[C@H](N)C[C@H](N)[C@H]3O[C@H]3O[C@H](CN)[C@@H](O)[C@H](O)[C@H]3N)O[C@@H]2CO)[C@H](N)[C@@H](O)[C@@H]1O` [Neomycin], the Colour of media result with Staphylococcus aureus (setting [3]), in the assay with Staphylococcus aureus (setting [4]), in the assay with Staphylococcus aureus (setting [5]), in the assay on Staphylococcus aureus (setting [6]), in the assay on Staphylococcus aureus (setting [7]) and with Staphylococcus aureus (setting [8]) was “red” each time. The Colour of media entry was “red” in the assay with Staphylococcus aureus (setting [9]); “red” in the assay with Staphylococcus aureus (setting [10]); “red” in the assay with Staphylococcus aureus (setting [11]); “red” in the assay on Staphylococcus aureus (setting [12]); “yellow” in the assay with Staphylococcus aureus (setting [13]); “yellow” in the assay on Staphylococcus aureus (setting [14]). Moreover, the Colour of media result in the assay on Staphylococcus aureus (setting [15]) is on record as “yellow”; in the assay on Staphylococcus aureus (setting [16]) it was “yellow”; in the assay with Staphylococcus aureus (setting [17]), “yellow”; in the assay on Staphylococcus aureus (setting [18]), “red”; in the assay with Staphylococcus aureus (setting [19]), “red”; with Staphylococcus aureus (setting [20]) it was “red”. Further, the Colour of media entry in the assay on Staphylococcus aureus (setting [21]) and with Staphylococcus aureus (setting [22]) was “red” in each case.
Turning to `Cc1cc(C2(c3cc(C)c(O)c(Br)c3)OS(=O)(=O)c3ccccc32)cc(Br)c1O` [bromocresol purple], the Growth inhibition result in the assay on Streptococcus uberis [1] is given as “does not inhibit growth”.
Regarding `O=S1(=O)OC(c2ccc(O)cc2)(c2ccc(O)cc2)c2ccccc21` [phenol red], the “Inhibition of Streptococcus uberis” value in the assay on Streptococcus uberis [2] is “No inhibition”.
